This note sets out measurements from patent US20150157588A1, “Pharmaceutical Composition Comprising Amino-Phenyl-Acetic Acid Octadec-(Z)-9-enyl Ester and Use Thereof for Treating Tumors” (Yeda Research and Development Co., Ltd., priority 2012, published 2015).

This assay relates to freshly isolated mouse B cells. The assay is described as follows: Spontaneous apoptosis by hypo-diploid nuclei PI staining, primary B cells. The format is cell-based. The conditions noted are these: 1 or 100 μg/ml in ethanol solution. As for the experimental part:
Apoptosis was measured by FACS analysis with a hypo-diploid nuclei propidium iodide (PI) staining of freshly isolated mouse B cells treated with amino-phenyl-acetic acid octadec-(Z)-9-enyl ester in ethanol solution. FIGS. 5A-5C: L-12 cells treated with 0, 1 or 100 μg/ml of amino-phenyl-acetic acid octadec-(Z)-9-enyl ester, respectively; FIGS. 5D-5F: L-12 cells treated with 0, 1 or 100 μg/ml of the control reagent 4-methyl-piperazino-acetic acid ethyl ester, respectively; and FIGS. 5G-5I: L-12 cells treated with an ethanol volume corresponding to 0, 1 or to 100 μg/ml of amino-phenyl-acetic acid octadec-(Z)-9-enyl ester in ethanol solution, respectively.
B or T-cell apoptosis was detected by flow cytometry. […] The cells were then subjected to flow cytometric analysis; for each sample 10,000 were collected and cell-cycle distribution was analyzed according to relative DNA content (PI staining). […] The cells were then collected, stained by APO-DIRECT TUNNEL kit (Phnxflow, CITY, Calif., USA); mitochondrial potential was measured by DePsipher (R&D Systems, Minneapolis, Minn.) according to the manufacturer's procedure. Intracellular caspase activity was measured by Apostat kit (R&D Systems), according to the manufacturer's procedure. The cells were analyzed by Flow cytometry using FACSort (Becton Dickinson) and CellQuest software (Becton Dickinson). […]

Consider `CCCCCCCC/C=C\CCCCCCCCOC(=O)C(N)c1ccccc1` (stereo not shown) [amino-phenyl-acetic acid octadec-(Z)-9-enyl ester], for which the “spontaneous apoptosis / cell-cycle of primary B cells” value was “partially protected from the spontaneous apoptosis”.
